{"source": "ChEMBL document CHEMBL1159233", "about": "“Antitumor agents, 154. Cytotoxic and antimitotic flavonols from Polanisia dodecandra” (J Nat Prod, 1995)", "key": {"[1]": {"assay": "Displacement of [3H]colchicine from tubulin at 5 uM"}, "[2]": {"test_system": "SF-539", "assay": "Growth inhibition of human SF539 cells", "format": "functional"}, "[3]": {"test_system": "A549", "assay": "Cytotoxicity against human A549 cells", "format": "functional"}, "[4]": {"assay": "Cytotoxicity against human PRMI7951 cells", "format": "functional", "settings": "read-out: ED50 (the source's name)"}, "[5]": {"test_system": "UO-31", "assay": "Growth inhibition of human UO31 cells", "format": "functional"}, "[6]": {"test_system": "SK-MEL-5", "assay": "Growth inhibition of human SK-MEL-5 cells", "format": "functional"}, "[7]": {"assay": "Displacement of [3H]colchicine from tubulin at 50 uM"}, "[8]": {"assay": "Inhibition of tubulin polymerization"}, "[9]": {"test_system": "SNB-75", "assay": "Growth inhibition of human SNB75 cells", "format": "functional"}, "[10]": {"test_system": "NCI-H460", "assay": "Growth inhibition of human NCI-H460 cells", "format": "functional"}, "[11]": {"assay": "Growth inhibition of human DMS144 cells", "format": "functional"}, "[12]": {"test_system": "P388", "assay": "Cytotoxicity against mouse P388 cells", "format": "functional", "settings": "read-out: ED50 (the source's name)"}, "[13]": {"test_system": "NCI-H226", "assay": "Growth inhibition of human NCI-H226 cells", "format": "functional"}, "[14]": {"test_system": "NCI-H522", "assay": "Growth inhibition of human NCI-H522 cells", "format": "functional"}, "[15]": {"test_system": "OVCAR-3", "assay": "Growth inhibition of human OVCAR-3 cells", "format": "functional"}, "[16]": {"test_system": "KB", "assay": "Cytotoxicity against human KB cells", "format": "functional", "settings": "read-out: ED50 (the source's name)"}, "[17]": {"test_system": "U-251", "assay": "Growth inhibition of human U251 cells", "format": "functional"}, "[18]": {"test_system": "HOP-62", "assay": "Growth inhibition of human HOP62 cells", "format": "functional"}, "[19]": {"test_system": "HCT-8", "assay": "Cytotoxicity against human HCT8 cells", "format": "functional"}, "[20]": {"test_system": "SK-OV-3", "assay": "Growth inhibition of human SKOV3 cells", "format": "functional"}, "[21]": {"test_system": "SR", "assay": "Growth inhibition of human SR cells", "format": "functional"}, "[22]": {"test_system": "TE-671", "assay": "Cytotoxicity against human TE671 cells", "format": "functional", "settings": "read-out: ED50 (the source's name)"}, "[23]": {"test_system": "HCT-116", "assay": "Growth inhibition of human HCT116 cells", "format": "functional"}, "[24]": {"test_system": "SF-268", "assay": "Growth inhibition of human SF268 cells", "format": "functional"}, "[25]": {"test_system": "HL-60(TB)", "assay": "Growth inhibition of human HL-60(TB) cells", "format": "functional"}, "[26]": {"settings": "read-out: ED50 (the source's name)"}}, "note": "Active and inactive are the calls of the source. The calls are words filed in the database; no cut-off is given here.", "data": [{"smiles": "COc1cc([C@@H]2c3cc4c(cc3[C@H](O)[C@H]3COC(=O)[C@H]23)OCO4)cc(OC)c1OC", "values": [{"measurement": "Activity", "setting": "[1]", "result": 82, "unit": "%"}]}, {"smiles": "COc1ccc(-c2oc3c(OC)c(OC)c(OC)c(O)c3c(=O)c2OC)cc1O", "values": [{"measurement": "GI50", "setting": "[2]", "result": "< 10", "unit": "nM"}, {"measurement": "TGI", "setting": "[2]; read-out: pTGI", "result": "< 10", "unit": "nM"}, {"measurement": "EC50", "setting": "[3]; [26]", "result": 0.6, "unit": "µg/mL"}, {"measurement": "Activity", "setting": "[1]", "result": 59, "unit": "%"}, {"measurement": "EC50", "setting": "[4]", "result": 0.55, "unit": "µg/mL"}, {"measurement": "GI50", "setting": "[5]", "result": "< 10", "unit": "nM"}, {"measurement": "TGI", "setting": "[5]; read-out: pTGI (converted)", "result": 5750, "unit": "nM"}, {"measurement": "GI50", "setting": "[6]", "result": "< 10", "unit": "nM"}, {"measurement": "TGI", "setting": "[6]; read-out: pTGI (converted)", "result": 1000, "unit": "nM"}, {"measurement": "Activity", "setting": "[7]", "result": 89, "unit": "%"}, {"measurement": "IC50", "setting": "[8]", "result": 830, "unit": "nM"}, {"measurement": "GI50", "setting": "[9]", "result": "< 10", "unit": "nM"}, {"measurement": "TGI", "setting": "[9]; read-out: pTGI", "result": "< 10", "unit": "nM"}, {"measurement": "GI50", "setting": "[10]", "result": "< 10", "unit": "nM"}, {"measurement": "TGI", "setting": "[10]; read-out: pTGI (converted)", "result": 138, "unit": "nM"}, {"measurement": "GI50", "setting": "[11]", "result": "< 10", "unit": "nM"}, {"measurement": "TGI", "setting": "[11]; read-out: pTGI", "result": "< 10", "unit": "nM"}, {"measurement": "EC50", "setting": "[12]", "result": 0.055, "unit": "µg/mL"}, {"measurement": "GI50", "setting": "[13]", "result": 61.7, "unit": "nM"}, {"measurement": "TGI", "setting": "[13]; read-out: pTGI (converted)", "result": 363, "unit": "nM"}, {"measurement": "GI50", "setting": "[14]", "result": "< 10", "unit": "nM"}, {"measurement": "TGI", "setting": "[14]; read-out: pTGI", "result": "< 10", "unit": "nM"}, {"measurement": "GI50", "setting": "[15]", "result": "< 10", "unit": "nM"}, {"measurement": "TGI", "setting": "[15]; read-out: pTGI", "result": "< 10", "unit": "nM"}, {"measurement": "EC50", "setting": "[16]", "result": 0.045, "unit": "µg/mL"}, {"measurement": "GI50", "setting": "[17]", "result": "< 10", "unit": "nM"}, {"measurement": "TGI", "setting": "[17]; read-out: pTGI (converted)", "result": 229, "unit": "nM"}, {"measurement": "GI50", "setting": "[18]", "result": 47.9, "unit": "nM"}, {"measurement": "TGI", "setting": "[18]; read-out: pTGI (converted)", "result": 4790, "unit": "nM"}, {"measurement": "EC50", "setting": "[19]; [26]", "result": 4.4, "unit": "µg/mL"}, {"measurement": "GI50", "setting": "[20]", "result": "< 10", "unit": "nM"}, {"measurement": "TGI", "setting": "[20]; read-out: pTGI (converted)", "result": 417, "unit": "nM"}, {"measurement": "GI50", "setting": "[21]", "result": "< 10", "unit": "nM"}, {"measurement": "TGI", "setting": "[21]; read-out: pTGI (converted)", "result": 112, "unit": "nM"}, {"measurement": "EC50", "setting": "[22]", "result": 0.069, "unit": "µg/mL"}, {"measurement": "GI50", "setting": "[23]", "result": "< 10", "unit": "nM"}, {"measurement": "TGI", "setting": "[23]; read-out: pTGI (converted)", "result": 123, "unit": "nM"}, {"measurement": "GI50", "setting": "[24]", "result": "< 10", "unit": "nM"}, {"measurement": "TGI", "setting": "[24]; read-out: pTGI (converted)", "result": 2820, "unit": "nM"}, {"measurement": "GI50", "setting": "[25]", "result": "< 10", "unit": "nM"}, {"measurement": "TGI", "setting": "[25]; read-out: pTGI", "result": "< 10", "unit": "nM"}]}, {"smiles": "COc1cc(-c2oc3c(OC)c(OC)c(OC)c(O)c3c(=O)c2OC)ccc1O", "values": [{"measurement": "Activity", "setting": "[3]", "result": "inactive"}, {"measurement": "EC50", "setting": "[4]", "result": 5.93, "unit": "µg/mL"}, {"measurement": "EC50", "setting": "[12]", "result": 6.52, "unit": "µg/mL"}, {"measurement": "EC50", "setting": "[16]", "result": 8.38, "unit": "µg/mL"}, {"measurement": "Activity", "setting": "[19]", "result": "inactive"}, {"measurement": "EC50", "setting": "[22]", "result": 0.98, "unit": "µg/mL"}]}, {"smiles": "COc1ccc(-c2oc3cc(O)c(OC)c(O)c3c(=O)c2OC)cc1O", "note": "[CENTAUREIDIN]", "values": [{"measurement": "Activity", "setting": "[1]", "result": 35, "unit": "%"}, {"measurement": "Activity", "setting": "[7]", "result": 76, "unit": "%"}, {"measurement": "IC50", "setting": "[8]", "result": 2000, "unit": "nM"}]}]}
